According to patent US20230338337A1, “BIOMARKERS FOR CANCER THERAPY USING MDM2 ANTAGONISTS” (OTSUKA PHARMACEUTICAL CO., LTD., priority 2019, published 2023):
Where two headings read alike, the source gives them in different places.

Tests used:
SJSA-1 = assay: Protocol B: CellTiter-Glo cell viability assay
[1] = target: MDM2-p53 interaction (in vitro translated MDM2) (Homo sapiens (Human), UniProt Q00987); assay: MDM2-p53 interaction 96-well plate binding assay (ELISA); conditions: for MDM2 % inhibition at 0.0010: at 0.0010 μM
MDM2-p53 interaction (in vitro translated MDM2), sequence (Q00987 whole entry): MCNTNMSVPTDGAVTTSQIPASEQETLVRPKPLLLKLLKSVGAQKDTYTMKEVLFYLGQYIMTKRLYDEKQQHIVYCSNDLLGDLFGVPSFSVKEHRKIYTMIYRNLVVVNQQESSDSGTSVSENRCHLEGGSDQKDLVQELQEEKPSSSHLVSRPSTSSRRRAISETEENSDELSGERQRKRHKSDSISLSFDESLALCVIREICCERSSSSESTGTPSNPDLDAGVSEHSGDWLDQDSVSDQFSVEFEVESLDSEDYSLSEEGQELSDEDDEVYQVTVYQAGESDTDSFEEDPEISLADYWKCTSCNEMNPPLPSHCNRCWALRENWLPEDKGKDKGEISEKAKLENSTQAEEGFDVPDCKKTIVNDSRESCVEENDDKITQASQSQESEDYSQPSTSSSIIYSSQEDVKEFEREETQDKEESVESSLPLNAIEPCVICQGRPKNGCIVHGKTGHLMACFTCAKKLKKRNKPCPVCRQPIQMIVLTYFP

[2] = system: SJSA-1 (p53 wild-type, MDM2 amplified osteosarcoma); assay: Protocol A: SRB growth inhibition assay; conditions: read-out: SJSA-1 IC50 (μM) (Protocol A)
SN40R2 = assay: Protocol B: CellTiter-Glo cell viability assay; conditions: read-out: SN40R2 (Protocol B) % inhibition at 10, Protocol B
[3] = read-out: SJSA1 IC50 (μM) (Protocol B), Protocol B

IC50 (SJSA-1; [3]) | MDM2 % inhibition at 0.0010 [1] | IC50 [2] | IC50 ([1]; read-out: MDM2 IC50) | MDM2 % inhibition at 0.0030 ([1]; at 0.0030 μM) | Compound | inhibition at 10 µM (SN40R2) | IC50 (SJSA-1; Homo sapiens, SJSA-1, read-out: SJSA1 IC50 (μM) (Protocol B), Protocol B)
0.051 µM | 59%@0.0010 | 0.075 µM | – | – | 1-({[(1R)-1-(4-chlorophenyl)-2-[(5-chloropyrimidin-2-yl)methyl]-7-fluoro-5-[1-hydroxy-1-(1-methyl-1H-imidazol-4-yl)propyl]-3-oxo-2,3-dihydro-1H-isoindol-1-yl]oxy}methyl)cyclopropane-1-carboxamide [Example 486] | – | –
0.047 µM | 80%@0.0010 | 0.073 µM | – | – | 2-{[(1R)-1-(4-chlorophenyl)-1-[(1-cyanocyclopropyl)methoxy]-7-fluoro-5-[1-hydroxy-1-(1-methyl-1H-imidazol-4-yl)propyl]-3-oxo-2,3-dihydro-1H-isoindol-2-yl]methyl}pyrimidine-5-carbonitrile [Example 462] | – | –
0.38 µM | – | 0.26 µM | 3.1 nM | – | 2-{[(1R)-1-(4-chlorophenyl)-7-fluoro-1-({1-[hydroxydideuteromethyl]cyclopropyl}dideuteromethoxy)-5-(2-hydroxypropan-2-yl)-3-oxo-2,3-dihydro-1H-isoindol-2-yl]methyl}pyrimidine-5-carbonitrile [Example 513] | – | –
0.066 µM | 38%@0.0010 | 0.028 µM | – | – | 2-{[(1R)-1-(4-chlorophenyl)-7-fluoro-5-[1-(4-fluoro-1-methylpiperidin-4-yl)-1-hydroxypropyl]-1-methoxy-3-oxo-2,3-dihydro-1H-isoindol-2-yl]methyl}pyrimidine-5-carbonitrile [Example 575] | – | –
0.065 µM | 47%@0.0010 | 0.021 µM | – | – | 2-{[(1R)-1-(4-chlorophenyl)-7-fluoro-5-[1-(4-fluoro-1-methylpiperidin-4-yl)-1-hydroxypropyl]-3-oxo-1-[(3S)-oxolan-3-yloxy]-2,3-dihydro-1H-isoindol-2-yl]methyl}pyrimidine-5-carbonitrile [Example 561] | – | –
0.073 µM | 79%@0.0010 | 0.084 µM | – | – | 2-{[(1R)-1-(4-chlorophenyl)-7-fluoro-5-{1-hydroxy-1-[trans-4-hydroxycyclohexyl]propyl}-1-(2-hydroxyethoxy)-3-oxo-2,3-dihydro-1H-isoindol-2-yl]methyl}pyrimidine-5-carbonitrile [Example 510] | – | –
– | – | – | – | – | CCC(O)(c1cc(F)c2c(c1)C(=O)N(Cc1ccc(C#N)cn1)[C@@]2(OCC1(F)COC1)c1ccc(Cl)cc1)c1cn(C)cn1 (stereo partly drawn) [Example 435, 6-{[(1R)-1-(4-chlorophenyl)-7-fluoro-1-[(3-fluorooxetan-3-yl)methoxy]-5-[1-hydroxy-1-(1-methyl-1H-imidazol-4-yl)propyl]-3-oxo-2,3-dihydro-1H-isoindol-2-yl]methyl}pyridine-3-carbonitrile] | 0% | 0.015 µM
– | – | – | – | – | CCC(O)(c1cc(F)c2c(c1)C(=O)N(Cc1ccc(C#N)cn1)[C@@]2(O[C@H]1CCOC1)c1ccc(Cl)cc1)C1(F)CCOCC1 (stereo partly drawn) [Example 445, 6-{[(1R)-1-(4-chlorophenyl)-7-fluoro-5-[1-(4-fluorooxan-4-yl)-1-hydroxypropyl]-3-oxo-1-[(3S)-oxolan-3-yloxy]-2,3-dihydro-1H-isoindol-2-yl]methyl}pyridine-3-carbonitrile] | 16% | –
0.17 µM | 82%@0.0010 | 0.14 µM | – | – | (3R)-3-(4-chlorophenyl)-2-[(5-chloropyridin-2-yl)methyl]-4-fluoro-6-[1-(4-fluoropiperidin-4-yl)-1-hydroxypropyl]-3-[(3S)-oxolan-3-yloxy]-2,3-dihydro-1H-isoindol-1-one [Example 548] | – | –
0.082 µM | – | 0.22 µM | – | 53%@0.0030 | (3R)-3-(4-chlorophenyl)-2-[(5-chloropyrimidin-2-yl)methyl]-4-fluoro-3-[(3-fluorooxetan-3-yl)methoxy]-6-[1-hydroxy-1-(1-methylpiperidin-4-yl)ethyl]-2,3-dihydro-1H-isoindol-1-one [Example 558] | – | –
0.0085 µM | 77%@0.0010 | 0.023 µM | – | – | (3R)-3-(4-chlorophenyl)-2-[(5-chloropyrimidin-2-yl)methyl]-4-fluoro-6-[1-(4-fluoro-1-methylpiperidin-4-yl)-1-hydroxypropyl]-3-[(3S)-oxolan-3-yloxy]-2,3-dihydro-1H-isoindol-1-one [Example 571] | – | –
0.02 µM | 79%@0.0010 | 0.028 µM | – | – | (3R)-3-(4-chlorophenyl)-2-[(5-chloropyrimidin-2-yl)methyl]-4-fluoro-6-[1-[4-fluoro-1-(oxetan-3-yl)piperidin-4-yl]-1-hydroxypropyl]-3-methoxy-2,3-dihydro-1H-isoindol-1-one [Example 552] | – | –
0.0091 µM | 86%@0.0010 | 0.013 µM | – | – | (3R)-3-(4-chlorophenyl)-2-[(5-chloropyrimidin-2-yl)methyl]-4-fluoro-6-[1-hydroxy-1-(1-methyl-1H-imidazol-4-yl)propyl]-3-{[1-(hydroxymethyl)cyclopropyl]methoxy}-2,3-dihydro-1H-isoindol-1-one [Example 477] | – | –
0.07 µM | 74%@0.0010 | 0.21 µM | – | – | (3R)-3-(4-chlorophenyl)-2-[(5-chloropyrimidin-2-yl)methyl]-4-fluoro-6-[1-hydroxy-1-(1-methylpiperidin-4-yl)ethyl]-3-{[1-(hydroxymethyl)cyclopropyl]methoxy}-2,3-dihydro-1H-isoindol-1-one [Example 554] | – | –
0.0064 µM | 91%@0.0010 | 0.056 µM | – | – | (3R)-3-(4-chlorophenyl)-2-[(5-chloropyrimidin-2-yl)methyl]-4-fluoro-6-[(1S)-1-hydroxy-1-(1-methylpiperidin-4-yl)propyl]-3-{[1-(hydroxymethyl)cyclopropyl]methoxy}-2,3-dihydro-1H-isoindol-1-one [Example 556] | – | –

Compound | IC50 (SJSA-1; [3]) | MDM2 % inhibition at 0.0010 [1] | IC50 [2] | IC50 ([1]; read-out: MDM2 IC50) | MDM2 % inhibition at 0.0030 ([1]; at 0.0030 μM) | inhibition at 10 µM (SN40R2) | IC50 (SJSA-1; Homo sapiens, SJSA-1, read-out: SJSA1 IC50 (μM) (Protocol B), Protocol B)
6-{[(1R)-1-(4-chlorophenyl)-7-fluoro-5-{1-hydroxy-1-[trans-4-hydroxycyclohexyl]propyl}-3-oxo-1-[cis-3-hydroxycyclobutoxy]-2,3-dihydro-1H-isoindol-2-yl]methyl}pyridine-3-carbonitrile [Example 518] | 0.065 µM | 79%@0.0010 | 0.058 µM | – | – | – | –
CC(O)(c1cc(F)c2c(c1)C(=O)N(Cc1ncc(Cl)cn1)[C@@]2(OCC1(CO)CC1)c1ccc(Cl)cc1)[C@H]1CC[C@H](O)CC1 (stereo partly drawn) [Example 401, (3R)-3-(4-chlorophenyl)-2-[(5-chloropyrimidin-2-yl)methyl]-4-fluoro-6-{1-hydroxy-1-[trans-4-hydroxycyclohexyl]ethyl}-3-{[1-(hydroxymethyl)cyclopropyl]methoxy}-2,3-dihydro-1H-isoindol-1-one] | 0.0098 µM | – | – | – | – | 6% | –
CCC(O)(CN1CCN(C)CC1)c1cc(F)c2c(c1)C(=O)N(Cc1ncc(Cl)cn1)[C@@]2(O[C@H]1CCOC1)c1ccc(Cl)cc1 (stereo partly drawn) [Example 522, (3R)-3-(4-chlorophenyl)-2-[(5-chloropyrimidin-2-yl)methyl]-4-fluoro-6-[2-hydroxy-1-(4-methylpiperazin-1-yl)butan-2-yl]-3-[(3S)-oxolan-3-yloxy]-2,3-dihydro-1H-isoindol-1-one] | 0.048 µM | – | – | – | – | 24% | –
